Experimental findings from US12018059B2, “Human amylin analog polypeptides and methods of use” (Intarcia Therapeutics, Inc., priority 2018, dated 2024) are described below.

What is called Vd is the apparent volume that relates the amount in the body to the concentration in plasma or blood. Usually clearance stands for the volume of plasma or blood freed of the substance per unit of time. In general, half-life refers to how long it takes for the measured level to halve.

The structures appear in SMILES notation. Starred links: 1 amine or outer side, 2 acyl side, 3 side chain; linkers in the order of their positions; H or OH if unused. Positions of bridges follow the written chain, without caps; N, C: chain ends. Non-standard residues stand in square brackets, D forms with d. Residues, ends and D or L forms follow the SMILES beside them. Groups on a side chain read outwards from the residue. *: point of attachment. γGlu = O=C(O)[C@H](CCC(=O)[*:2])N[*:1]; Palmitoyl = CCCCCCCCCCCCCCCC(=O)*; AEEA = NCCOCCOCC(=O)O

The series can be described thus: in vivo. Details: species or system Sprague-Dawley rats. The following applies: rat, iv, 0.033 mg/kg. As to the method: Peptides were dissolved in sterile saline and administered as a 1-hour intravenous infusion to non-fasted male Sprague-Dawley rats (n=3 per group) via femoral vein cannula at a final dose of 0.033 mg/kg. […] Blood samples (approximately 250 μL) were collected for pharmacokinetic analysis via a jugular vein cannula at 0.25, 0.5, 0.75, 1, 1.17, 1.33, 1.5, 2, 4, 6, 8, 24, 30 and 48 hr post-start of infusion into microtainer tubes containing K2EDTA as anticoagulant and 25 μL of a protease inhibitor cocktail. Plasma was prepared by centrifugation and stored at −80° C. until analysis. The results of this analysis are shown in Table 9 and few exemplars in FIGS. 3a-3b. […]
A 60 μL aliquot of each plasma sample was placed into to a 96-well plate. To each well was added 6 μL of 0.5% Tween-20. Plates were then vortexed mixed for 10 minutes at 1200 rpm before 180 μL of 0.1% TFA in 2:1 ethanol:acetonitrile containing an appropriate internal standard was added to each well. Plates were vortex mixed for 5 min at 1300 rpm, and then centrifuged for 10 min at 2844×g. Supernatants (180 μL) were placed into a clean 96-well plate and evaporated under a nitrogen stream at 45° C. Residues were reconstituted in 80 μL of 20% acetonitrile (aq) containing 0.1% formic acid.
A […] aliquot of each plasma sample was diluted with […] of 10 mM ammonium acetate (pH 6.8) containing an appropriate internal standard and loaded onto an Oasis WCX microElution plate (Waters Corporation, Milford, MA) that had been pre-conditioned with […] of methanol and […] of deionized water. Samples were washed with […] of 5% ammonium hydroxide (aq) followed by […] of 20% acetonitrile in water. The analyte was eluted with […] of 5% formic acid in 75:25 acetonitrile:water. The eluent was dried under a nitrogen stream. Residues were reconstituted in 80 μL of 20% acetonitrile (aq) containing 0.1% formic acid.
All calibration standards were prepared in control rat plasma containing K2EDTA and protease inhibitor cocktail.
Samples and standards were analyzed by TurbolonSpray™ UPLC-MS/MS using a system consisting of a CTC HTS PAL auto-injector (Leap, Carrboro, NC), an Agilent Infinity 1290 system with column oven (Palo Alto, CA), a Valco switching valve (Houston, TX), and either an AB Sciex API 5600 TripleTOF™ or Sciex API 4000QTrap mass spectrometer (Framingham, MA). Samples were injected onto a 2.1×50 mm reverse phase C18 analytical column, typically a Waters CORTECS UPLC C18+, 1.6 μm (Waters Corporation, Milford, MA) or similar. […] Initial conditions consisted of 90% A and 10% B. The organic component was increased to 95% B over a period of 3-4 minutes, depending on the peptide. Typical flow rates were 600 μL/min. The column temperature was held constant at 40 or 50° C. Peptides were quantified by monitoring one or more product ions produced from a multiply charged parent ion.

The compound `CCCCCCCCCCCCCCCC(=O)N[C@@H](CCC(=O)N[C@@H](CCC(=O)N[C@@H](CCC(=O)N[C@@H](CCC(=O)NCCCC[C@H](NC(=O)[C@H](CCC(=O)O)NC(=O)[C@H](CC(N)=O)NC(=O)[C@H](C)NC(=O)[C@H](CC(C)C)NC(=O)[C@H](CCCNC(=N)N)NC(=O)[C@H](CCC(N)=O)NC(=O)[C@@H](NC(=O)[C@H](C)NC(=O)[C@@H]1CSSC[C@H](NC(=O)[C@@H](N)CO)C(=O)N[C@@H](CC(N)=O)C(=O)N[C@@H]([C@@H](C)O)C(=O)N[C@@H](CO)C(=O)N[C@@H]([C@@H](C)O)C(=O)N1)[C@@H](C)O)C(=O)N[C@@H](Cc1c[nH]cn1)C(=O)N[C@@H](CCCCN)C(=O)N[C@@H](CO)C(=O)N[C@@H](CO)C(=O)N[C@@H](CC(N)=O)C(=O)N[C@@H](CC(N)=O)C(=O)N[C@@H](Cc1ccccc1)C(=O)NCC(=O)N1CCC[C@H]1C(=O)N[C@H](C(=O)N[C@@H](CC(C)C)C(=O)N1CCC[C@H]1C(=O)N1CCC[C@H]1C(=O)N[C@H](C(=O)N[C@@H](CCCCN)C(=O)N[C@H](C(=O)NCC(=O)N[C@@H](CO)C(=O)N[C@@H](CCC(=O)O)C(=O)N[C@H](C(=O)N[C@@H](Cc1ccc(O)cc1)C(N)=O)[C@@H](C)O)C(C)C)[C@@H](C)O)[C@@H](C)CC)C(=O)O)C(=O)O)C(=O)O)C(=O)O` [Compound A21] (H-SCNTSTCATQRLANEK([γGlu-γGlu-γGlu-γGlu-Palmitoyl])HKSSNNFGPILPPTKVGSETY-NH2; disulfide 2-7) gave a Vd of 0.131 L/kg, a clearance of 0.178 mL/min/kg and a half-life of 10.4 h.
For `CCCCCCCCCCCCCCCC(=O)N[C@@H](CCC(=O)NCCOCCOCC(=O)NCCOCCOCC(=O)N[C@@H](CCC(=O)NCCCC[C@@H](NC(=O)[C@H](CCC(=O)O)NC(=O)[C@H](CC(N)=O)NC(=O)[C@H](C)NC(=O)[C@H](CC(C)C)NC(=O)[C@H](CCCNC(=N)N)NC(=O)[C@H](CCC(N)=O)NC(=O)[C@@H](NC(=O)[C@H](C)NC(=O)[C@@H]1CSSC[C@H](NC(=O)[C@@H](N)CO)C(=O)N[C@@H](CC(N)=O)C(=O)N[C@@H]([C@@H](C)O)C(=O)N[C@@H](CO)C(=O)N[C@@H]([C@@H](C)O)C(=O)N1)[C@@H](C)O)C(=O)N[C@@H](Cc1c[nH]cn1)C(=O)N[C@@H](CCCCN)C(=O)N[C@@H](CO)C(=O)N[C@@H](CO)C(=O)N[C@@H](CC(N)=O)C(=O)N[C@@H](CC(N)=O)C(=O)N[C@@H](Cc1ccccc1)C(=O)NCC(=O)N1CCC[C@H]1C(=O)N[C@H](C(=O)N[C@@H](CC(C)C)C(=O)N1CCC[C@H]1C(=O)N1CCC[C@H]1C(=O)N[C@H](C(=O)N[C@@H](CCCCN)C(=O)N[C@H](C(=O)NCC(=O)N[C@@H](CO)C(=O)N[C@@H](CCC(=O)O)C(=O)N[C@H](C(=O)N[C@@H](Cc1ccc(O)cc1)C(N)=O)[C@@H](C)O)C(C)C)[C@@H](C)O)[C@@H](C)CC)C(=O)O)C(=O)O` [Compound A25] (H-SCNTSTCATQRLANE[dK]([γGlu-AEEA-AEEA-γGlu-Palmitoyl])HKSSNNFGPILPPTKVGSETY-NH2; disulfide 2-7; N-terminus assumed) the same measures were 0.249 L/kg, 0.788 mL/min/kg and 4.97 h.
